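Where inhibition never reached the appropriate level, the endpoint shown equals the highest concentration tested. Otherwise, values were interpolated linearly from a five-concentration, 48-hour dose response in 96-well plates. GI50 = concentration required for 50% inhibition of growth. TGI marks complete inhibition of growth.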

Some test systems named below: COLO 205 colon; DU-145 prostate; HOP-62 NSCLC; HT29 colon; K-562 leukemia; MDA-MB-231 breast; OVCAR-3 ovarian; OVCAR-5 ovarian; SNB-75 CNS; SR leukemia.
Holding throughout (assay): growth of human tumour cells (NCI), 48 h

Consider `O=C(c1ccccc1)c1ccccc1C(=O)c1ccccc1`, for which the GI50 was 79.5 µM in the experiment with COLO 205 colon; 88.1 µM in the experiment on DU-145 prostate; greater than 100 µM in the experiment on HOP-62 NSCLC; 45.3 µM in the experiment with HT29 colon; 41 µM in the experiment on K-562 leukemia; 65.5 µM in the experiment with MDA-MB-231 breast. The GI50 in the experiment with OVCAR-3 ovarian is 41 µM; in the experiment on OVCAR-5 ovarian, greater than 100 µM; in the experiment on SNB-75 CNS, 45.5 µM; in the experiment on SR leukemia, 41.7 µM. Further, the TGI in the experiment on COLO 205 colon, in the experiment with DU-145 prostate, with HOP-62 NSCLC, in the experiment with HT29 colon, in the experiment with K-562 leukemia and in the experiment on MDA-MB-231 breast was greater than 100 µM in each case. Moreover, the TGI in the experiment on OVCAR-3 ovarian, with OVCAR-5 ovarian, in the experiment with SNB-75 CNS and in the experiment with SR leukemia was greater than 100 µM each time.

Take `COc1cccc2ccc3c(c12)C(=O)OC31CCc2c(C)cccc21` (centres undefined): the TGI with COLO 205 colon is greater than 46.4 µM; with DU-145 prostate, greater than 100 µM; in the experiment with HOP-62 NSCLC, greater than 46.4 µM; with HT29 colon, greater than 31.6 µM; in the experiment on K-562 leukemia, 89.5 µM; in the experiment with MDA-MB-231 breast it was greater than 100 µM. For the same compound, the TGI in the experiment on OVCAR-3 ovarian was greater than 46.4 µM; in the experiment on OVCAR-5 ovarian it was greater than 46.4 µM; with SNB-75 CNS it was 45.1 µM; in the experiment with SR leukemia, 18.4 µM.

Consider `Cc1nc2sc(C(=O)Nc3cccc(Cl)c3C)c(N)c2cc1C(C)O` (centres undefined), for which the GI50 is 0.257 µM in the experiment on COLO 205 colon; 0.329 µM in the experiment on DU-145 prostate; 0.53 µM in the experiment on HOP-62 NSCLC; 0.112 µM in the experiment on HT29 colon; 0.0459 µM in the experiment with K-562 leukemia; 0.547 µM with MDA-MB-231 breast. In addition, the GI50 was 0.114 µM in the experiment with OVCAR-3 ovarian, 0.7 µM in the experiment with OVCAR-5 ovarian, 0.097 µM in the experiment on SNB-75 CNS and 0.0418 µM in the experiment with SR leukemia. Also, the TGI is 7.04 µM in the experiment with COLO 205 colon; greater than 86.5 µM in the experiment on DU-145 prostate; greater than 100 µM in the experiment with HOP-62 NSCLC; 13.8 µM in the experiment with HT29 colon; greater than 38.5 µM in the experiment with K-562 leukemia; 46.5 µM in the experiment on MDA-MB-231 breast. The TGI in the experiment on OVCAR-3 ovarian is greater than 33.4 µM; in the experiment with OVCAR-5 ovarian it was greater than 74.8 µM; in the experiment with SNB-75 CNS, greater than 42.1 µM; with SR leukemia it was greater than 51.7 µM.

For the compound `Cc1[nH]n(-c2ccccc2)c(=O)c1C(=O)c1ccccc1`, the GI50 is greater than 25 µM in the experiment on COLO 205 colon; greater than 25 µM in the experiment with DU-145 prostate; greater than 25 µM in the experiment with HOP-62 NSCLC; greater than 25 µM with HT29 colon; greater than 21.3 µM with K-562 leukemia; greater than 25 µM in the experiment with MDA-MB-231 breast. The GI50 with OVCAR-3 ovarian was greater than 25 µM; in the experiment with OVCAR-5 ovarian, greater than 25 µM; with SNB-75 CNS, greater than 25 µM; in the experiment with SR leukemia, greater than 21 µM. Further, the TGI in the experiment on COLO 205 colon, with DU-145 prostate, in the experiment with HOP-62 NSCLC, in the experiment on HT29 colon, in the experiment with K-562 leukemia and with MDA-MB-231 breast was greater than 25 µM in each case. The TGI in the experiment on OVCAR-3 ovarian, with OVCAR-5 ovarian, with SNB-75 CNS and in the experiment on SR leukemia was greater than 25 µM in each case.

Regarding `CC(C)=CCC/C(C)=C/[C@H]1OC(=O)CC12C[C@H](O)C=CC2=O` (some centres undefined), the GI50 in the experiment with COLO 205 colon is 1.1 µM; with DU-145 prostate, 0.529 µM; in the experiment on HOP-62 NSCLC, 0.856 µM; in the experiment on HT29 colon, 0.469 µM; in the experiment on K-562 leukemia it was 0.363 µM; with MDA-MB-231 breast it was 1.55 µM. For the same compound, the GI50 in the experiment on OVCAR-3 ovarian was 0.455 µM; with OVCAR-5 ovarian it was 1.14 µM; in the experiment with SNB-75 CNS, 1.64 µM; with SR leukemia, 0.383 µM. Besides, the TGI is 3.72 µM with COLO 205 colon; 2.18 µM in the experiment with DU-145 prostate; 2.43 µM with HOP-62 NSCLC; greater than 100 µM in the experiment on K-562 leukemia; 3.29 µM with MDA-MB-231 breast; 0.848 µM in the experiment with OVCAR-3 ovarian. Also, the results for the TGI with OVCAR-5 ovarian, in the experiment with SNB-75 CNS and in the experiment with SR leukemia were 2.54 µM, 4.2 µM and greater than 100 µM, respectively.

Consider `O=c1[nH]cnc2nc(-c3ccc(N(CCCl)CCCl)cc3)[nH]c12`, for which the GI50 was greater than 100 µM with COLO 205 colon; 15.9 µM in the experiment on DU-145 prostate; 10.7 µM with HOP-62 NSCLC; greater than 100 µM in the experiment on HT29 colon; 1.9 µM in the experiment on K-562 leukemia; 3.23 µM in the experiment with MDA-MB-231 breast. The GI50 with OVCAR-3 ovarian is 22.8 µM; in the experiment on OVCAR-5 ovarian it was 30.1 µM; in the experiment with SNB-75 CNS, 18.1 µM; with SR leukemia, greater than 100 µM. For the same compound, the TGI was greater than 100 µM in the experiment on COLO 205 colon; greater than 100 µM in the experiment with DU-145 prostate; 63.8 µM in the experiment on HOP-62 NSCLC; greater than 100 µM in the experiment with HT29 colon; greater than 100 µM in the experiment on K-562 leukemia; greater than 100 µM in the experiment with MDA-MB-231 breast. Also, the TGI in the experiment with OVCAR-3 ovarian was 79.6 µM; in the experiment with OVCAR-5 ovarian, greater than 100 µM; in the experiment with SNB-75 CNS, 74.2 µM; in the experiment on SR leukemia, greater than 100 µM.

In the case of `CC(C)(O)CCC(O)C(C)(O)C1CCC2(O)C3=CC(=O)C4(O)CC(O)C(O)CC4(C)C3CCC12C` (centres undefined) (tested in a mixture with another compound), the TGI in the experiment on COLO 205 colon, in the experiment on DU-145 prostate, in the experiment on HOP-62 NSCLC, with HT29 colon, in the experiment on K-562 leukemia and with MDA-MB-231 breast was greater than 100 µM throughout. Besides, the TGI with OVCAR-3 ovarian, in the experiment on OVCAR-5 ovarian, with SNB-75 CNS and in the experiment on SR leukemia was greater than 100 µM each time.

For `C[C@H]1CC2=CC(=O)CC[C@]2(C)[C@H]2CC[C@@]3(C)[C@@H](CC[C@]3(C)O)[C@H]12`, the GI50 with COLO 205 colon is 15.8 µM; in the experiment on DU-145 prostate, 45.7 µM; in the experiment on HOP-62 NSCLC it was 33.5 µM; in the experiment with HT29 colon it was 44.7 µM; in the experiment with K-562 leukemia, 24.7 µM; in the experiment on MDA-MB-231 breast, 35 µM. Moreover, the GI50 was 33.9 µM in the experiment on OVCAR-3 ovarian, 55.9 µM in the experiment on OVCAR-5 ovarian, 40.2 µM in the experiment on SNB-75 CNS and 21.7 µM in the experiment on SR leukemia. Further, the TGI with COLO 205 colon was 36.1 µM; with DU-145 prostate it was greater than 96.3 µM; in the experiment with HOP-62 NSCLC, greater than 76.1 µM; with HT29 colon it was greater than 100 µM; in the experiment with K-562 leukemia it was greater than 88.1 µM; with MDA-MB-231 breast it was greater than 100 µM. Moreover, the TGI with OVCAR-3 ovarian was greater than 91.8 µM; with OVCAR-5 ovarian it was greater than 100 µM; with SNB-75 CNS it was greater than 100 µM; in the experiment with SR leukemia it was 55.5 µM.
